Experimental data: patent US10456379B2, “Imidazole-based antimicrobial agents” (priority 2014, dated 2019)
Values after ≈ are worked out from the molar mass of the structure shown. Read-outs that look alike come from different tables or passages of the source.

Key:
[1] = test system: vancomycin-resistant Enterococcus faecalis (ATCC51575); test: microbe, parasite or virus in culture; format: cell-based; settings: ATCC51575; vancomycin-resistant Enterococcus faecalis; read-out: Antibacterial activity, VREFs (vancomycin-resistant EFs), MIC class
[2] = test system: Enterococcus faecium (AGR15, ATCCBAA-2127); test: Broth microdilution MIC assay, Enterococcus faecium; format: cell-based; settings: ATCCBAA2127, read-out: Antibacterial activity, EFm (Enterococcus faecium), MIC class
[3] = test system: Enterococcus faecalis (ATCC29212); test: Broth microdilution MIC assay, Enterococcus faecalis; format: cell-based; settings: read-out: Antibacterial activity, EFs (Enterococcus faecalis), MIC class
[4] = test system: vancomycin-resistant Enterococcus faecium (ATCC51559); test: microbe, parasite or virus in culture; format: cell-based
[5] = test system: Staphylococcus aureus MRSA (COL); test: Broth microdilution MIC assay, Staphylococcus aureus MRSA (COL); format: cell-based; settings: for Antibacterial activity Staphylococcus aureus (MRSA): MIC class score, MIC100, broth microdilution, COL strain; for MIC: Staphylococcus aureus, MRSA, read-out: Antibacterial activity, MRSA (Staphylococcus aureus MRSA), MIC class
[6] = test system: Staphylococcus aureus MSSA (Newman); test: Broth microdilution MIC assay, Staphylococcus aureus MSSA (Newman); format: cell-based; settings: for Antibacterial activity Staphylococcus aureus (MSSA): MIC class score, MIC100, broth microdilution, Newman strain; for MIC: Staphylococcus aureus
[7] = test system: Streptococcus pneumoniae (Chester, ATCC49619); test: Broth microdilution MIC assay, Streptococcus pneumoniae; format: cell-based; settings: for Antibacterial activity Streptococcus pneumoniae: MIC class score, MIC100, broth microdilution; for MIC: Streptococcus pneumoniae, ATCC49619, read-out: Antibacterial activity, SP (Streptococcus pneumoniae), MIC class
[8] = test system: Mycobacterium smegmatis (mc(2)155); test: Broth microdilution MIC assay, Mycobacterium smegmatis
[9] = test system: Staphylococcus epidermidis (PCI 1200, ATCC12228); test: Broth microdilution MIC assay, Staphylococcus epidermidis; format: cell-based; settings: read-out: Antibacterial activity, SE (Staphylococcus epidermidis), MIC class
[10] = ATCC51559, vancomycin-resistant Enterococcus faecium, read-out: Antibacterial activity, VREFm (vancomycin-resistant EFm), MIC class
[11] = read-out: Antibacterial activity, MSSA (Staphylococcus aureus MSSA), MIC class

SMILES: Cc1[nH]c(-c2ccc(-c3ccc(Cl)c(C(F)(F)F)c3)o2)nc1-c1ccc(F)cc1 [compound 42]
- MIC [1]: 11 to 20 µg/mL (≈ 26.1 to 47.5 µM)
- MIC [2]: 20 to 50 µg/mL (≈ 47.5 to 119 µM)
- MIC [3]: 11 to 20 µg/mL (≈ 26.1 to 47.5 µM)
- MIC [4, 10]: 20 to 50 µg/mL (≈ 47.5 to 119 µM)

SMILES: CCCc1[nH]c(-c2ccc(-c3cccc4[nH]ccc34)o2)nc1C [compound 108]
- Antibacterial activity Staphylococcus aureus (MRSA) [5]: 2 (MIC100 of 11-20 μg/ml)

SMILES: Cc1nc(-c2ccc(-c3ccccc3F)o2)[nH]c1-c1ccc(O)cc1 [compound 77]
- Antibacterial activity Staphylococcus aureus (MSSA) [6]: 3 (MIC100 of 3-10 μg/ml)
- Antibacterial activity Streptococcus pneumoniae [7]: 3 (MIC100 of 2-5 μg/ml)

SMILES: Cc1[nH]c(-c2ccc(-c3cccc(C(F)(F)F)c3)o2)nc1-c1ccc(F)cc1 [compound 38]
- Antibacterial activity Streptococcus pneumoniae [7]: 3 (MIC100 of 2-5 μg/ml)
- MIC [7]: 2 to 5 µg/mL (≈ 5.18 to 12.9 µM)
- MIC [3]: 20 to 50 µg/mL (≈ 51.8 to 129 µM)
- MIC ([4]; Enterococcus faecium, ATCC51559, read-out: Antibacterial activity, VREFm (vancomycin-resistant EFm), MIC class): 20 to 50 µg/mL (≈ 51.8 to 129 µM)

SMILES: Cc1[nH]c(-c2ccc(-c3ccccc3F)s2)nc1-c1ccccc1 [compound 15]
- Antibacterial activity, MS (Mycobacterium smegmatis), MIC class [8]: 2 (MIC100 of 11-20 μg/ml)

SMILES: Cc1nc(-c2ccc(-c3ccc4cc(O)ccc4c3)o2)[nH]c1-c1ccccc1 [compound 154]
- MIC ([6]; read-out: Antibacterial activity Staphylococcus aureus (MSSA)): 11 to 20 µg/mL (≈ 30 to 54.6 µM)
- Antibacterial activity Streptococcus pneumoniae [7]: 2 (MIC100 of 6-10 μg/ml)

SMILES: Cc1nc(-c2ccc(-c3ccc(Cl)c(OC(F)(F)F)c3)o2)[nH]c1-c1ccccc1 [compound 41]
- MIC [1]: 20 to 50 µg/mL (≈ 47.8 to 119 µM)
- MIC [9]: 11 to 20 µg/mL (≈ 26.3 to 47.8 µM)
- MIC [3]: 20 to 50 µg/mL (≈ 47.8 to 119 µM)
- MIC [4, 10]: 20 to 50 µg/mL (≈ 47.8 to 119 µM)

SMILES: Cc1ccccc1-c1cnc(-c2ccc(-c3ccccc3C(F)(F)F)o2)[nH]1 [compound 69]
- Antibacterial activity Staphylococcus aureus (MRSA) [5]: 2 (MIC100 of 11-20 μg/ml)
- MIC [6, 11]: 11 to 20 µg/mL (≈ 29.9 to 54.3 µM)
- Antibacterial activity, MS (Mycobacterium smegmatis), MIC class [8]: 2 (MIC100 of 11-20 μg/ml)
- MIC [7]: < 1 µg/mL
- MIC [4, 10]: 20 to 50 µg/mL (≈ 54.3 to 136 µM)

SMILES: Cc1nc(-c2ccc(-c3ccc(O)cc3F)o2)[nH]c1-c1ccc(O)cc1 [compound 120]
- Antibacterial activity Staphylococcus aureus (MSSA) [6]: 2 (MIC100 of 11-20 μg/ml)

SMILES: CCCc1nc(-c2sc(-c3ccccc3C(F)(F)F)c3c2OCCO3)[nH]c1C [Compound 114]
- Antibacterial activity Staphylococcus aureus (MRSA) [5]: 3 (MIC100 of 3-10 μg/ml)

SMILES: CCCc1nc(-c2coc(-c3ccccc3C(F)(F)F)c2)[nH]c1C [Compound 112]
- Antibacterial activity Staphylococcus aureus (MRSA) [5]: 3 (MIC100 of 3-10 μg/ml)

SMILES: Cc1nc(-c2ccc(-c3ccccc3C(F)(F)F)o2)[nH]c1-c1cccc(Cl)c1 [compound 22]
- Antibacterial activity Staphylococcus aureus (MSSA) [6]: 2 (MIC100 of 11-20 μg/ml)
- MIC [6, 11]: 11 to 20 µg/mL (≈ 27.3 to 49.7 µM)
- Antibacterial activity Streptococcus pneumoniae [7]: 3 (MIC100 of 2-5 μg/ml)
- MIC [7]: 2 to 5 µg/mL (≈ 4.97 to 12.4 µM)

SMILES: Cc1nc(-c2ccc(-c3cccc(OC(F)(F)F)c3)o2)[nH]c1-c1ccc(F)cc1 [compound 37]
- MIC [1]: 20 to 50 µg/mL (≈ 49.7 to 124 µM)
- Antibacterial activity, MS (Mycobacterium smegmatis), MIC class [8]: 2 (MIC100 of 11-20 μg/ml)
- MIC [7]: < 1 µg/mL
- MIC [3]: 20 to 50 µg/mL (≈ 49.7 to 124 µM)
- MIC [4, 10]: 20 to 50 µg/mL (≈ 49.7 to 124 µM)

SMILES: Cc1nc(-c2ccc(-c3cccc(Cl)c3)o2)[nH]c1-c1ccccc1 [compound 4]
- MIC [5]: 11 to 20 µg/mL (≈ 32.9 to 59.7 µM)
- MIC [7]: < 1 µg/mL

SMILES: Cc1[nH]c(-c2ccc(-c3ccc(OC(F)(F)F)cc3)o2)nc1-c1ccc(Cl)cc1 [compound 48]
- MIC [1]: 20 to 50 µg/mL (≈ 47.8 to 119 µM)
- MIC [9]: 11 to 20 µg/mL (≈ 26.3 to 47.8 µM)
- MIC [3]: 20 to 50 µg/mL (≈ 47.8 to 119 µM)
- MIC [4, 10]: 20 to 50 µg/mL (≈ 47.8 to 119 µM)

SMILES: Cc1[nH]c(-c2ccc(-c3ccc(C(F)(F)F)cc3)s2)nc1-c1ccccc1 [compound 46]
- Antibacterial activity Staphylococcus aureus (MSSA) [6]: 2 (MIC100 of 11-20 μg/ml)
- MIC [6, 11]: 11 to 20 µg/mL (≈ 28.6 to 52 µM)
- Antibacterial activity Streptococcus pneumoniae [7]: 3 (MIC100 of 2-5 μg/ml)

SMILES: FC(F)(F)Oc1ccccc1-c1ccc(-c2nc(-c3ccccc3Cl)c[nH]2)o1 [compound 67]
- MIC [9]: 11 to 20 µg/mL (≈ 27.2 to 49.4 µM)
- MIC [7]: 2 to 5 µg/mL (≈ 4.94 to 12.4 µM)

SMILES: Cc1nc(-c2ccc(-c3ccc(Cl)cc3Cl)o2)[nH]c1-c1ccc(F)cc1 [compound 16]
- MIC [1]: 20 to 50 µg/mL (≈ 51.6 to 129 µM)
- MIC [7]: 2 to 5 µg/mL (≈ 5.16 to 12.9 µM)
- MIC [3]: 20 to 50 µg/mL (≈ 51.6 to 129 µM)
- MIC [4, 10]: 20 to 50 µg/mL (≈ 51.6 to 129 µM)

SMILES: CCCc1[nH]c(-c2ccc(-c3ccccc3)o2)nc1C [compound 94]
- Antibacterial activity Staphylococcus aureus (MRSA) [5]: 3 (MIC100 of 3-10 μg/ml)

SMILES: CCCc1nc(-c2ccc(-c3ccccc3C)o2)[nH]c1C [compound 100]
- Antibacterial activity Staphylococcus aureus (MRSA) [5]: 2 (MIC100 of 11-20 μg/ml)

SMILES: Fc1ccc(-c2ccc(-c3nc4ccccc4[nH]3)o2)cc1 [compound 121]
- Antibacterial activity Staphylococcus aureus (MRSA) [5]: in- active
- Antibacterial activity Streptococcus pneumoniae [7]: in- active

SMILES: Cc1[nH]c(-c2ccc(-c3ccccc3Cl)o2)nc1-c1ccccc1 [compound 3]
- MIC [5]: 11 to 20 µg/mL (≈ 32.9 to 59.7 µM)
- MIC [9]: 11 to 20 µg/mL (≈ 32.9 to 59.7 µM)
- MIC [7]: < 1 µg/mL

SMILES: CCCc1[nH]c(-c2ccc(-c3ccc(O)cc3C(F)(F)F)o2)nc1C [compound 110]
- Antibacterial activity Staphylococcus aureus (MRSA) [5]: 3 (MIC100 of 3-10 μg/ml)
